{"source": "ChEMBL document CHEMBL5096161", "about": "“Medulloblastoma drugs in development: Current leads, trials and drawbacks” (Eur J Med Chem, 2021)", "key": {"Daoy [1]": {"test_system": "Daoy", "assay": "Antitumor activity against human Daoy cells assessed as inhibition of cell proliferation", "type": "functional, cell-based"}, "D283 Med [2]": {"test_system": "D283 Med", "assay": "Antitumor activity against human D283 Med cells assessed as inhibition of cell proliferation", "type": "functional, cell-based"}, "Daoy [3]": {"test_system": "Daoy", "assay": "Antiproliferative activity against human Daoy cells assessed as inhibition of cell proliferation measured after 4 days by WST-1 assay", "type": "functional, cell-based", "settings": "96 h"}, "[4]": {"assay": "Antiproliferative activity against human D556 Med cells assessed as inhibition of cell proliferation measured after 4 days by WST-1 assay", "type": "functional, cell-based", "settings": "96 h"}, "[5]": {"assay": "Antitumor activity against human HD-MB03 cells assessed as inhibition of cell growth incubated for 72 hrs by CellTiter-Glo luminescent assay", "type": "functional"}, "ONS-76 [6]": {"test_system": "ONS-76", "assay": "Antitumor activity against human ONS-76 cells assessed as inhibition of cell growth incubated for 72 hrs by CellTiter-Glo luminescent assay", "type": "functional"}, "Daoy [7]": {"test_system": "Daoy", "assay": "Antitumor activity against human Daoy cells assessed as inhibition of cell growth incubated for 72 hrs by CellTiter-Glo luminescent assay", "type": "functional"}, "[8]": {"assay": "Antitumor activity against human UW228 cells assessed as inhibition of cell growth incubated for 72 hrs by CellTiter-Glo luminescent assay", "type": "functional"}, "[9]": {"assay": "Cytotoxicity against human D384 Med cells assessed as reduction in cell viability incubated for 48 hrs by Cell TiterGlo luminescent assay", "type": "functional, cell-based", "settings": "pooled result: one value given for 10 cell lines, strains, targets or settings"}, "Daoy [10]": {"test_system": "Daoy", "assay": "Antiproliferative activity against human Daoy cells assessed as reduction in cell viability incubated for 48 hrs by MTT assay", "type": "functional, cell-based"}, "D283 Med [11]": {"test_system": "D283 Med", "assay": "Antiproliferative activity against human D283 Med cells assessed as reduction in cell viability incubated for 48 hrs by MTT assay", "type": "functional, cell-based"}, "Daoy [12]": {"test_system": "Daoy", "assay": "Antiproliferative activity against human Daoy cells assessed as inhibition of cell growth incubated for 24 to 96 hrs by MTT assay", "type": "functional", "settings": "time 24-96 hrs"}, "ONS-76 [13]": {"test_system": "ONS-76", "assay": "Antiproliferative activity against human ONS-76 cells assessed as inhibition of cell growth incubated for 24 to 96 hrs by MTT assay", "type": "functional", "settings": "time 24-96 hrs"}, "ONS-76 [14]": {"test_system": "ONS-76", "assay": "Antitumor activity against human ONS-76 cells xenografted in athymic nude mouse assessed as inhibition of tumor growth at 100 mg/kg, po QD for 9 days", "type": "functional", "settings": "ONS-76, 216 h, time 9 day, read-out: TGI"}, "[15]": {"assay": "Ratio of AUC (0 to infinity) in brain to plasma of C57BL mouse at 20 mg/kg, iv by HPLC/MS/MS method", "type": "ADME, organism-based", "settings": "brain and plasma, read-out: Ratio AUC"}, "Protein smoothened [16]": {"molecular_target": "T1, Protein smoothened (Homo sapiens, UniProt Q99835, D473H)", "T1 sequence (Q99835 28-787 D473H limits assumed)": "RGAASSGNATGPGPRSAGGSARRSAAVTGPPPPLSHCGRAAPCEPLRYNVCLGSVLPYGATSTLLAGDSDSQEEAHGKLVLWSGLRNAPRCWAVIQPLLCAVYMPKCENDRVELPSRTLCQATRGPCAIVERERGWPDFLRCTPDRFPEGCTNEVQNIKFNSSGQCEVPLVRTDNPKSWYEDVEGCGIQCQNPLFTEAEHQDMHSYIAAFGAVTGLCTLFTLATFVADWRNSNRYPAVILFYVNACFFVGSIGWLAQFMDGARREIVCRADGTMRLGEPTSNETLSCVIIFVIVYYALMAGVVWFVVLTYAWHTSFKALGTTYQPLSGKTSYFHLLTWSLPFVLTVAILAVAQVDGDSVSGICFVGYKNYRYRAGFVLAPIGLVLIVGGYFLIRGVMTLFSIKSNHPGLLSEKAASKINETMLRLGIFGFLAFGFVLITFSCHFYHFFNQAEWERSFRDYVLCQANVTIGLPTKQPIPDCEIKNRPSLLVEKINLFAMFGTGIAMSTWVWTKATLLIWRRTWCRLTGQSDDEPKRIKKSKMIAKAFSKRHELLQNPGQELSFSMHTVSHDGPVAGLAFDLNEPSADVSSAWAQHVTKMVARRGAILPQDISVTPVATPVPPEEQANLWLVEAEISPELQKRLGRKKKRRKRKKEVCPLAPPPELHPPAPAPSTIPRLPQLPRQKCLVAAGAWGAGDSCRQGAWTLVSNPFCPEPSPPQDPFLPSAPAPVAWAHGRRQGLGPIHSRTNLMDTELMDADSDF", "assay": "Antagonist activity at resistant Smo D473H mutant (unknown origin) expressed in mouse C3H 10T1/2 cells cotransfected with Gli reporter gene assessed as Gli luciferase activity incubated for 24 hrs by dual luciferase assay", "type": "functional, cell-based"}, "[17]": {"assay": "Cytotoxicity against human D425 Med cells expressing Glt1-tTA:TRE-MYCN/Luc (GTML) assessed as reduction in cell viability incubated for 72 hrs by Resazurin assay", "type": "functional, cell-based"}, "Daoy [18]": {"test_system": "Daoy", "assay": "Antiproliferative activity against human Daoy cells assessed as inhibition of cell growth incubated for 72 hrs by Alamar blue dye based fluorescence spectrophotometric assay", "type": "functional"}, "[19]": {"assay": "Antiproliferative activity against human pateint derived Medulloblastoma cells assessed as inhibition of cell growth incubated for 72 hrs by Alamar blue dye based fluorescence spectrophotometric assay", "type": "functional"}, "[20]": {"assay": "Inhibition of hedgehog signalling in mouse NIH3T3 cells cotransfected with Gli/RE luciferase reporter gene assessed as Gli luciferase activity preincubated for 15 to 30 mins followed by ShhN stimulation and after 28 hrs by Steady-Glo reagent based luciferase assay"}, "[21]": {"assay": "Antitumor activity against human Med-1712FH cells xenografted in athymic nude mouse assessed as tumor regression at 75 mg/kg, po QD for 28 days", "type": "functional", "settings": "Med-1712FH cell, 672 h, time 28 day, read-out: TGI"}, "[22]": {"assay": "Antitumor activity against human Med-211 FH cells xenografted in athymic nude mouse assessed as tumor regression at 75 mg/kg, po QD for 28 days", "type": "functional", "settings": "Med-211FH cell, 672 h, time 28 day, read-out: TGI"}, "[23]": {"assay": "Anticancer activity against human MED-MEB-8A cells assessed as reduction in cell viability incubated for 72 hrs by CCK assay", "type": "functional, cell-based"}, "[24]": {"assay": "Anticancer activity against human UW426 cells assessed as reduction in cell viability incubated for 72 hrs by CCK assay", "type": "functional, cell-based", "settings": "UW426, 72 h"}, "[25]": {"assay": "Anticancer activity against human UW228 cells assessed as reduction in cell viability incubated for 72 hrs by CCK assay", "type": "functional, cell-based", "settings": "UW228, 72 h"}, "[26]": {"assay": "Anticancer activity against mouse Ptch+/- MB55 cells assessed as reduction in cell viability incubated for 72 hrs by CellTiter-Glo luminescent assay", "type": "functional, cell-based"}, "[27]": {"assay": "Anticancer activity against mouse Ptch+/- MB21 cells assessed as reduction in cell viability incubated for 72 hrs by CellTiter-Glo luminescent assay", "type": "functional, cell-based"}, "[28]": {"assay": "Anticancer activity against mouse Ptch+/- Trp53-/- MB53 cells assessed as reduction in cell viability incubated for 72 hrs by CellTiter-Glo luminescent assay", "type": "functional, cell-based"}, "Protein smoothened [29]": {"molecular_target": "T1, Protein smoothened", "assay": "Inhibition of Smo D473H mutant (unknown origin) expressed in mouse NIH3T3 cells cotransfected with Gli luciferase reporter gene assessed as Gli luciferase activity incubated for 48 hrs by Bright-Glo reagent based luciferase assay", "type": "cell-based"}, "[30]": {"assay": "Inhibition of hedgehog signalling in mouse NIH3T3 cells cotransfected with Gli luciferase reporter gene assessed as Gli luciferase activity incubated for 48 hrs by Bright-Glo reagent based luciferase assay", "type": "cell-based", "settings": "NIH3T3, 48 h"}, "D283 Med [31]": {"test_system": "D283 Med", "assay": "Antitumor activity against human D283 Med cells assessed as inhibition of cell proliferation incubated for 72 hrs by CellTiter-Glo luminescent assay", "type": "functional, cell-based"}, "Daoy [32]": {"test_system": "Daoy", "assay": "Antitumor activity against human Daoy cells assessed as inhibition of cell proliferation incubated for 72 hrs by CellTiter-Glo luminescent assay", "type": "functional, cell-based"}}}
{"smiles": "CCN1CCN(Cc2ccc(-c3cc4c(N[C@H](C)c5ccccc5)ncnc4[nH]3)cc2)CC1", "note": "[AEE-788]", "values": [{"measurement": "IC50", "setting": "Daoy [1]", "value": 1700, "unit": "nM"}, {"measurement": "IC50", "setting": "D283 Med [2]", "value": 3.8, "unit": "µM"}]}
{"smiles": "O=[As][As+](=O)[O-]", "note": "(centres undefined) [ARSENIC TRIOXIDE]", "values": [{"measurement": "IC50", "setting": "Daoy [3]", "value": 400, "unit": "nM"}, {"measurement": "IC50", "setting": "[4]", "value": 400, "unit": "nM"}]}
{"smiles": "Cc1sc2c(c1C)C(c1ccc(Cl)cc1)=N[C@@H](CC(=O)Nc1ccc(O)cc1)c1nnc(C)n1-2", "note": "[BIRABRESIB]", "values": [{"measurement": "GI50", "setting": "[5]", "value": 160, "unit": "nM"}, {"measurement": "GI50", "setting": "ONS-76 [6]", "value": 160, "unit": "nM"}, {"measurement": "GI50", "setting": "Daoy [7]", "value": 160, "unit": "nM"}, {"measurement": "GI50", "setting": "[8]", "value": 160, "unit": "nM"}]}
{"smiles": "Nc1cc(C(F)(F)F)c(-c2cc(N3CCOCC3)nc(N3CCOCC3)n2)cn1", "note": "[BUPARLISIB]", "values": [{"measurement": "IC50", "setting": "[9]", "value": 279, "unit": "nM"}]}
{"smiles": "O=C(/C=C/c1ccc(CN(CCO)CCc2c[nH]c3ccccc23)cc1)NO", "note": "[DACINOSTAT]", "values": [{"measurement": "IC50", "setting": "Daoy [10]", "value": "< 100", "unit": "nM"}, {"measurement": "IC50", "setting": "D283 Med [11]", "value": "< 200", "unit": "nM"}]}
{"smiles": "CC1=C(/C=C/C(C)=C/C=C/C(C)=C/C(=O)Nc2ccc(O)cc2)C(C)(C)CCC1", "note": "[FENRETINIDE]", "values": [{"measurement": "GI50", "setting": "Daoy [12]", "value": 5, "unit": "µM"}, {"measurement": "GI50", "setting": "ONS-76 [13]", "value": 2000, "unit": "nM"}]}
{"smiles": "COc1cc2c(Oc3ccc(NC(=O)C4(C(=O)Nc5ccc(F)cc5)CC4)cc3F)ccnc2cc1OCCCN1CCOCC1", "note": "[FORETINIB]", "values": [{"measurement": "inhibition in vivo at 100 mg/kg", "setting": "ONS-76 [14]", "value": 50, "unit": "%"}]}
{"smiles": "Cc1c(Cc2ccccc2)nnc(N2CCN(c3cnc(C(C)(C)O)cn3)[C@H](C)C2)c1C", "note": "[LEQ506]", "values": [{"measurement": "Kp", "setting": "[15]", "value": 0.69}, {"measurement": "IC50", "setting": "Protein smoothened [16]", "value": 96, "unit": "nM"}]}
{"smiles": "CNC(=O)c1nn(C)c2c1C(C)(C)Cc1cnc(Nc3ccc(N4CCN(C)CC4)cc3)nc1-2", "note": "[MILCICLIB]", "values": [{"measurement": "IC50", "setting": "[17]", "value": 940, "unit": "nM"}]}
{"smiles": "Cc1cn(-c2cc(NC(=O)c3ccc(C)c(Nc4nccc(-c5cccnc5)n4)c3)cc(C(F)(F)F)c2)cn1", "note": "[NILOTINIB]", "values": [{"measurement": "IC50", "setting": "Daoy [18]", "value": 6, "unit": "µM"}, {"measurement": "IC50", "setting": "[19]", "value": 5, "unit": "µM"}, {"measurement": "IC50", "setting": "[20]", "value": 374, "unit": "nM"}]}
{"smiles": "CC(=O)c1c(C)c2cnc(Nc3ccc(N4CCNCC4)cn3)nc2n(C2CCCC2)c1=O", "note": "[PALBOCICLIB]", "values": [{"measurement": "inhibition in vivo at 75 mg/kg", "setting": "[21]", "value": 63, "unit": "%"}, {"measurement": "inhibition in vivo at 75 mg/kg", "setting": "[22]", "value": 63, "unit": "%"}]}
{"smiles": "Cc1[nH]c2ccccc2c1CCNCc1ccc(/C=C/C(=O)NO)cc1", "note": "[PANOBINOSTAT]", "values": [{"measurement": "IC50", "setting": "[23]", "value": 46, "unit": "nM"}, {"measurement": "IC50", "setting": "[24]", "value": 67, "unit": "nM"}, {"measurement": "IC50", "setting": "[25]", "value": 54, "unit": "nM"}]}
{"smiles": "Cn1cc(CNCC2CCN(c3ncc(C(=O)NO)cn3)CC2)c2ccccc21", "note": "[QUISINOSTAT]", "values": [{"measurement": "IC50", "setting": "Daoy [10]", "value": "< 100", "unit": "nM"}, {"measurement": "IC50", "setting": "D283 Med [11]", "value": "< 200", "unit": "nM"}]}
{"smiles": "O=C(O)c1ccc2c(c1)nc(Nc1cccc(Cl)c1)c1ccncc12", "note": "[SILMITASERTIB]", "values": [{"measurement": "IC50", "setting": "[26]", "value": 2500, "unit": "nM"}, {"measurement": "IC50", "setting": "[27]", "value": 2500, "unit": "nM"}, {"measurement": "IC50", "setting": "[28]", "value": 2500, "unit": "nM"}]}
{"smiles": "CCc1cc2c(c(OCC(F)(F)F)c(C(=O)NC3CCN(C(=O)CO)CC3)n2C)c(=O)n1CC(=O)c1ccccc1", "note": "[TAK-441]", "values": [{"measurement": "IC50", "setting": "Protein smoothened [29]", "value": 79, "unit": "nM"}, {"measurement": "IC50", "setting": "[30]", "value": 4.4, "unit": "nM"}]}
{"smiles": "Cc1c(Cl)cccc1Nc1ccccc1C(=O)O", "note": "[TOLFENAMIC ACID]", "values": [{"measurement": "IC50", "setting": "D283 Med [31]", "value": 20.8, "unit": "µg/mL"}, {"measurement": "IC50", "setting": "Daoy [32]", "value": 21.6, "unit": "µg/mL"}]}
